Activity calls are given as the source filed them.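 How the source made its calls: active means compounds giving half or more protection of infected cells from virus-caused growth loss, again on retest; inactive means the rest.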 Where a SMILES comes first, the peptide text is derived from it.
System: CEM cells HIV-1 protection, formazan growth assay
Assay: NCI AIDS Antiviral Assay
Conditions: for IC50: measured here: growth of uninfected CEM cells
Method in brief: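 Human CEM cells, uninfected and HIV-1-infected, exposed to five drug concentrations; growth measured by soluble formazan assay and scored as percent protection from infection, with protecting compounds retested.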

Compound	EC50 [µM]	IC50 [µM]	outcome
OC/C=C/[C@H](OCc1ccccc1)[C@H](/C=C/CO)OCc1ccccc1	> 200	57.5	
COc1cc(OC)cc(Oc2nc3ccccc3nc2C(=O)O)c1	> 200	> 200	
CCCC/C=C(\CCCNCCCC)[Si](C)(C)C	> 479	178	
CC1=CC(=O)c2c(O)cccc2C1=O	> 2	0.912	
CCCCCCCCCCNCCSSCc1ccc(OC)cc1	> 200	3.39	
CN1CC=C(C#CC(C)(C)O)CC1	> 200	> 200	
CCCCC(O)(c1ccccc1)C(O)(c1ccccc1)c1c(F)c(F)c(F)c(F)c1F (stereo not drawn)	> 200	39.8	
O=C(O)C1CCC(c2ccc(Cl)cc2)N1 (stereo not drawn)	> 200	> 200	
O=C(N/C(=C\c1cccc([N+](=O)[O-])c1)c1nc2[nH]c(=S)[nH]c(=O)c2[nH]1)c1ccccc1			inactive
CC1(C)C2CCC(=O)C1C(OCc1ccccc1)C2 (stereo not drawn)	> 200	95.5	
COCCN(CCNC(=O)c1cccc2c(N)c3cccc(C)c3nc12)CCOC	> 2	0.269	
Clc1cc2nc[nH]c2cc1Cl	> 269	141	
Cc1cc2c(cc1Cl)SC(NN(C)C)=NS2(=O)=O	> 200	117	
O=[N+]([O-])c1ccc2c(Nc3ccccc3-c3ccccc3Nc3c4ccccc4nc4cc([N+](=O)[O-])ccc34)c3ccccc3nc2c1	> 2.29	> 2.29	
NCc1ccc(-c2ccc(-c3ccc(-c4ccc(CN)s4)s3)s2)s1	> 100	72.4	
CCn1cc(C(=O)O)c(=O)c2cc(F)c(N3CCNCC3)nc21			inactive
OC[C@H]1N[C@H](CO)[C@@H](O)[C@H]1O	> 200	148	
O=C(O)CCCCCNC(=O)CCC(CN(CC(=O)OCc1ccccc1)CC(=O)OCc1ccccc1)N(CC(=O)OCc1ccccc1)CC(=O)OCc1ccccc1 (stereo not drawn)			inactive
O=C(C[P+](c1ccccc1)(c1ccccc1)c1ccccc1)C[P+](c1ccccc1)(c1ccccc1)c1ccccc1	> 200	0.759	
S=C(N/N=C(/c1ccccc1)c1ccccn1)Nc1ccccc1	> 0.2	0.0977	
CCC1(c2ccc(OC)c(OC)c2)CCN(S(=O)(=O)c2ccc(C)cc2)C1 (stereo not drawn)	> 200	> 200	
COc1cc2cnc3c4cc(OCc5ccccc5)ccc4ccc3c2cc1OC	> 6.61	> 6.61	
Cc1c2c(cc3c1C(=O)C(=O)C([C@@H](C)CO)=C3O)C(C)(C)CCC2	> 200	15.1	

Compound	EC50 [µM]	IC50 [µM]	outcome
N#C/C(=C\c1cc(Br)c(O)c(Br)c1)c1cccnc1	> 100	44.7	
CCN(CC)CCSc1c2ccccc2nc2c(OC)ccc(OC)c12			inactive
CCOc1cc2c[n+](C)c3c4cc(OC)c(OC)cc4ccc3c2cc1OC	> 33.1	> 33.1	
COc1ccc([C@H]2CC(=O)NCCCCN2)cc1	> 200	> 200	
CCCCCC(/C=C/C1CCC(=O)C1)OCOCCOC (stereo not drawn)	> 200	18.2	
CCOC(=O)C1=NNC(C(=O)c2ccccc2)C1c1ccccc1 (stereo not drawn)	> 200	2.19	
CC[C@]1(c2ccc3c(c2)OCO3)C=[N+]([O-])O[C@H](OC2CCCC2(c2ccccc2)c2ccccc2)[C@@H]1OC(C)=O (stereo partly drawn)	> 200	4.07	
Cc1ccc(S(=O)(=O)N2CCCSCC2)cc1	> 182	> 182	
CC(=O)OC[C@]1(C)C2C=C[C@@H]3C4(CC[C@]5(C)C(C(C)N(C)C)[C@H](O)CC35C)CC24CC[C@@H]1N(C)C (stereo partly drawn)			inactive
NCC(=O)NC1(C(=O)O)CCCC1 (HELM PEPTIDE1{G.[O=C(O)C1(N[*:1])CCCC1]}$$$$V2.0)	> 200	> 200	
CCn1c2ccccc2c(=O)c2c(OC)ccc(OC)c21			inactive
O=C(CS(=O)(=O)c1ccccc1)c1ccccc1	> 347	251	
O=C1c2ccccc2C(=O)c2c1ccc1c3ccccc3n(-c3ccccc3)c21	> 50.1	0.871	
COc1ccc(S(=O)(=O)N[C@@H](C(=O)O)c2ccccc2)cc1			inactive
CN1c2ccccc2C(=O)NC12CCN(CCCC(=O)c1ccc(F)cc1)CC2	> 200	> 100	
COc1ccc(CCNCc2cccc(OC)c2OC)cc1OC			inactive
O=C(CCCN1CCc2[nH]c3cc(F)ccc3c2C1)c1ccc(F)cc1	> 200	24.5	
CCCCCC(CO)C(O)(C(F)(F)F)C(F)(F)F (stereo not drawn)	> 200	70.8	
COc1ccccc1/C=C(/C(=O)c1ccccc1)c1ccccc1	> 8.71	> 8.71	
Cc1ccc(C2(C)CC(C)(C)c3ccc(C)cc3O2)c(O)c1 (stereo not drawn)	> 200	20.4	
O=C1C2(Cl)C3(Cl)C4(OCCO4)C4(Cl)C2(Cl)C2(Cl)C1(Cl)C3(Cl)C42Cl (stereo not drawn)	> 200	28.8	
O=C(c1ccccc1)C1(c2ccccc2)SSC1(C(=O)c1ccccc1)c1ccccc1 (stereo not drawn)	> 100	> 100	
Clc1ccc(C2NN=C3c4ccccc4OCC32)cc1 (stereo not drawn)	> 200	4.27	

Compound	EC50 [µM]	IC50 [µM]	outcome
CC(=O)c1c2n(n(-c3ccccc3)c1=O)C(=O)c1nccnc1-2	> 200	> 200	
Cc1cc(S(=O)(=O)Nc2nc3ccccc3c(=O)n2N)c(S)cc1Cl	40.7	77.6	
Cc1cccc(C)c1NC(=O)CCC(=O)NNC(=O)c1cc(O)c2ccccc2c1	> 234	33.9	
O=S(Cc1cnc2ccccc2c1)c1nc2ccccc2nc1-c1cccs1 (stereo not drawn)	> 6.76	> 6.76	
CC(=O)NC(CCCCNCc1ccccc1)C(=O)NCc1ccccc1 (stereo not drawn)	> 676	> 676	
COc1ccc(Cc2c(-c3ccc(C)cc3)n[nH]c(=O)c2C2C(=O)N(c3ccccc3)N=C2c2ccccc2)cc1 (stereo not drawn)	> 200	38	
COc1ccc(-c2c3c(n(C4OC(COC(C)=O)C(OC(C)=O)C(OC(C)=O)C4OC(C)=O)c(=S)c2C#N)CCC3)cc1 (stereo not drawn)	> 200	112	
COc1cc(/C=C(\C#N)C(=O)c2ccccc2)cc(OC)c1OC	> 16.2	> 16.2	
Oc1cc(O)cc(/C=C/c2ccc(O)c(O)c2)c1			inactive
COc1cc(C(=O)C/C(CCC(=O)Nc2ccccc2[N+](=O)[O-])=N\NC(=O)C(N)=O)ccc1O	> 145	> 145	
O=C1OC(CS(=O)(=O)c2ccccc2)CC1O (stereo not drawn)	> 200	> 200	
CC(=O)Nc1ccc(S(=O)(=O)Nc2cnc3ccccc3n2)cc1	> 525	> 525	
CN(C)C(=S)Nc1ccc(Cl)cc1	> 200	52.5	
CCOC(=O)c1nc(SC)sc1NC(=O)c1ccc(OC)cc1	162	> 200	
C/C=C1\C=[N+]([O-])C2CC1C(C(=O)OC)C13C[C@@H](OC)OC21Nc1ccccc13 (stereo partly drawn)			inactive
CC1(C)C2CC(=O)C1(C)C(O)C2Br (stereo not drawn)			inactive
CC(=O)NNC(=S)N/C=C(\C#N)S(=O)(=O)c1ccc(C)cc1			inactive
Cc1nc2c(=O)[nH]c3ccccc3c2o1	> 200	> 200	
CCOC(=O)c1ccc(NC(NC(=O)CC)(C(F)(F)F)C(F)(F)F)cc1	> 200	24.5	
O=C(O)C1CC2(CCC1c1ccccc1)SCCS2 (stereo not drawn)	> 447	> 447	
COC12OC3(C4OC41)C(C(=O)O[C@H]3CO)C2S(=O)(=O)c1ccccc1 (stereo partly drawn)	> 200	> 200	
O=C1C2=Cc3ccccc3CCN2c2ccccc21	> 200	26.9	
CC1(C)COC2C(N(Cc3ccccc3)Cc3ccccc3)C(=O)N21 (stereo not drawn)			inactive

Compound	EC50 [µM]	IC50 [µM]	outcome
NC(=S)Nc1[nH]c(=S)nc2c1c(-c1ccccc1)cn2C(=O)c1ccccc1	> 25.1	> 25.1	
O=C1NC(=O)[C@@]2(CCOc3ccc(F)cc32)N1	> 741	661	
O=[N+]([O-])/C=C/c1cc2ccccc2[nH]1	> 200	6.31	
CC(=O)O[C@@H]1CC[C@@]2(C)C(=O)C34C[C@@]5(C)C([C@@H](C)CCCC(C)C)CCC5(C)[C@](O)(O3)C(=O)[C@H]4C2C1(C)C (stereo partly drawn)	> 18.6	> 18.6	
O=C(Cc1ccccc1)NN1C(=O)C(Cl)C1c1cc(Br)ccc1O (stereo not drawn)	> 12.6	6.92	
C=CC/C=C/C/C=C/CCCCCCCc1cccc(O)c1C(=O)O	> 105	56.2	
CN(C)c1ccc(/C=C(\C#N)c2cccc(F)c2)cc1	> 2	0.141	
COc1cc2c(cc1OCCCCCN1C(=O)c3cccc4cccc(c34)C1=O)N=C[C@@H]1CCCN1C2=O	> 2	1.1	
Nc1ccc(C(=O)NN2C(=O)C(Cl)C2c2ccccc2Cl)cc1 (stereo not drawn)	> 200	3.31	
Cc1nc2c(nc1C)C(=O)C(Br)=C(N)C2=O			inactive
CCCOC(C)OCCC#CCC(C)OC(=O)CC(Cl)(Cl)Cl (stereo not drawn)	> 200	> 200	
Cc1ccc(Nc2nc(NS(=O)(=O)c3cc(C)c(Cl)cc3S)n(C)n2)cc1	> 200	105	
O=C(/C=C/c1ccc(O)c(O)c1)c1cc(O)cc(O)c1	> 200	15.1	
CC(=O)OC1O[C@@H](C(C)(C)O)CC[C@@H]1[C@H]1CC[C@@]2(C)C3=C(CC[C@]12C)[C@@]1(C)C[C@@H](OC(=O)CC(C)(O)CC(=O)O)[C@H](OC(C)=O)C(C)(C)C1CC3 (stereo partly drawn)	> 200	105	
NC(=O)c1ncn(C2C=CC(CP(=O)(O)O)C2)c1N (stereo not drawn)	> 200	> 200	
Cc1ccc2c(c1)C1(C)c3cc(C)ccc3SP1S2 (stereo not drawn)	> 12.6	> 12.6	
NC(=S)N/N=C/c1ccc(O)cn1	> 661	1.12	
CCCCCCCCCCCCS(=O)(=O)O (tested in a mixture with another compound)	> 200	107	
S=c1sc2sc(=S)sc2s1			inactive
CN(C)c1ccc(-c2nc(-c3cc4c(ccc5ccccc54)oc3=O)cs2)cc1	> 100	> 100	

From PubChem BioAssay AID179 (DTP/NCI, 2004)
